# Patent US20240335464A1, “ADMINISTRATION OF STING AGONIST, CHECKPOINT INHIBITORS, AND RADIATION” (Takeda Pharmaceutical Company Limited, priority 2020, published 2024)
# Test system: EMT6 mouse breast carcinoma syngeneic tumor
# Test: Study 2: EMT6 mouse syngeneic tumor model, subcutaneous, anti-tumor efficacy
# Format: in vivo, female BALB/c mice
# Settings: for GRI (%) Day 21: vs vehicle; for Complete Regressions: n=10/group, 60-day study; for Combination Assessment / Synergy Score %: data through Day 21
# Source text: Studies 1 and 2: EMT6 is a mouse breast carcinoma cell line. EMT6 mouse syngeneic tumor model was generated by subcutaneous (sc) inoculation with 0.2×10^6 EMT6 cells (cell suspension) in nine to ten week old female BALB/c mice (Vital River Laboratory Animal Technology Co., Ltd., Beijing, China) in the flank. When the mean tumor volume reached 60 mm^3 in Study 1 and 75 mm^3 in Study 2 the animals were randomized into one vehicle control and seven treatment groups (n=10/group). Mice were then dosed with vehicle (phosphate buffered saline (PBS)) or Compound No. 14 or 10 Gy Radiation or Compound No. 14 plus 10 Gy Radiation over an eight-day period. Tumor growth and body weight were measured three times per week during the treatment and post-treatment periods. Mice were humanely euthanized once they reached their humane endpoint or until study termination on day 72 (Study 1) or on day 60 (Study 2).
# Studies 1 and 2: A 0.1 mg/mL stock solution of Compound No. 14 was formulated in PBS and administered intravenously (IV) based on exact animal body weight on each day of treatment, using a dosing volume of 10 mL/kg body weight. Final doses received were 1.0 mg/kg. […] Compound No. 14 was administered on a Q3D schedule for 3 doses (Day 2, 5 and 8) in single agent treatment group and in combination treatment groups. Dose formulation of Compound No. 14 was prepared once and utilized for dosing on Days 2, 5 and 8.
# Radiation treatment for Studies 1 and 2 was performed using RadSource RS 2000 X-ray irradiator (Rad Source Technologies). Animals received 1.046 Gy/minute of radiation and approximately 9.5 min was needed to reach a 10 Gy dose delivery. Animals were anesthetized prior to placement in irradiation chamber using isoflurane and checked for reflexes. Radiation beam was focused on tumor with manual positioning. Radiation was administered via manual positioning in a single 10 Gy dose on either day 0, 2 or 4 in Study 1, and on either day 0, 1, 2, 3 or 4 in Study 2.
# Tumors were measured three times weekly using vernier calipers. Tumor volumes were calculated using standard equation: V=W^2×L/2, where V=volume, W=width, and L=length for the tumor. When mean tumor volumes reached approximately 60 mm^3 for Study 1, 75 mm^3 for Study 2, and 110 mm^3 for Study 3, mice were randomized into eight groups (n=10/group) in Studies 1 and 2, and nine groups (n=8/group) in Study 3. These groups were then dosed with vehicle (PBS), Compound No. 14, Radiation, anti-mPD-1 or isotype control, or combinations of these agents as described in Tables 1a, 2a, and 3a. Tumor size and body weight were measured three times a week for the duration of each study. Mice were euthanized for Studies 1 and 2 when their tumor volumes reached greater than 10% of their body weight or when an individual tumor exceeded the humane end-point for size (>2 cm) or when an animal lost 20% of their body weight relative to the start of the study or lost 15% of their body weight in any 24 hr time frame. Mice were euthanized in Study 3 when tumor volume exceeded 2,000 mm^3 or an animal lost more than 20% of their body weight relative to the start of study.
# Growth Rate Inhibition: The differences in the tumor growth trends over time between pairs of treatment groups were assessed by fitting each animal's data to a simple exponential growth model and comparing the mean growth rates of the two groups, as described in more detail below. The difference in the growth rates was summarized by the GRI, which is the reduction in growth rate experienced by the treatment group relative to that of the reference group, expressed as a fraction of the vehicle growth rate.
# μT and μC are the mean tumor growth rates for the treatment and reference groups, respectively. μV is the mean tumor growth rate for the vehicle group, which in most cases is the same as the reference group.
# A GRI greater than 100% is interpreted as tumor regression when the vehicle group is the same as the reference group. […]
# [1] = Compound No. 14 1.0 mg/kg IV Q3D×3 + Radiation (10Gy) (Day 2)
# [2] = Compound No. 14 1.0 mg/kg IV Q3D×3 + Radiation (10Gy) (Day 3)
# [3] = Compound No. 14 1.0 mg/kg IV Q3D×3 + Radiation (10Gy) (Day 4)
# [4] = Compound No. 14 + Radiation (10Gy) (Day 0)
# [5] = Compound No. 14 + Radiation (10Gy) (Day 1)
# [6] = Compound No. 14 + Radiation (10Gy) (Day 2)
# [7] = Compound No. 14 + Radiation (10Gy) (Day 3)
# [8] = Compound No. 14 + Radiation (10Gy) (Day 4)
smiles,measurement,setting,value
Nc1ncnc2c1ncn2[C@@H]1O[C@@H]2COP(=O)(S)O[C@@H]3[C@H](O)[C@@H](COP(=O)(S)O[C@H]2[C@H]1F)O[C@H]3n1cc(F)c2c(=O)[nH]cnc21 (stereo partly drawn) [Compound No. 14],GRI (%) Day 21,"Compound No. 14 1.0 mg/kg IV Q3D×3 (Days 2, 5, 8), single agent",20%
same,GRI (%) Day 21,Compound No. 14 1.0 mg/kg IV Q3D×3 + Radiation (10Gy) (Day 0),60%
same,GRI (%) Day 21,Compound No. 14 1.0 mg/kg IV Q3D×3 + Radiation (10Gy) (Day 1),62%
same,Complete Regressions,[1],2
same,GRI (%) Day 21,[1],68%
same,Complete Regressions,[2],4
same,GRI (%) Day 21,[2],64%
same,Complete Regressions,[3],2
same,GRI (%) Day 21,[3],60%
same,Combination Assessment,[4],additive
same,Synergy Score %,[4],−20%
same,Combination Assessment,"Compound No. 14 + Radiation (10Gy) (Day 0), listed as Compound No.14",Additive
same,Combination Assessment,[5],Additive
same,Synergy Score %,[5],−22%
same,Combination Assessment,[6],synergistic
same,Synergy Score %,[6],−28%
same,Combination Assessment,"Compound No. 14 + Radiation (10Gy) (Day 2), listed as Compound No.14",Synergistic
same,Combination Assessment,[7],Additive
same,Synergy Score %,[7],−24%
same,Combination Assessment,[8],Additive
same,Synergy Score %,[8],−20%
